PubChem BioAssay AID1963960 (Molecular Pharmacology Branch, DTP, NCI, 2024)

System: MDA-MB-468 spheroids with HUVEC/MSC, viability
Test: Anticancer human tumor MDA-MB-468 cell line growth inhibition [PI3K];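 further: spheroids exposed to agents for seven days before readout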
Conditions: for IC50: curve of first compound; for viability, T/C: stronger effect = lower value; active means viability on the fitted dose curve at most 10% of control; inactive means the rest
From the text: Combinatorial screen of targeted agents with the PI3K inhibitors inavolisib, alpelisib, duvelisib, and copanlisib in multi-cell type tumor spheroids
A high-throughput screen of multi-cell type tumor spheroids was designed to identify active combinations of targeted small molecules and PI3K pathway inhibitors. Complex spheroids include a stromal component modeled by human endothelial cells (HUVEC) and fibroblasts modeled by human mesenchymal stem cells (MSCs). The concentration ranges selected for each drug and investigational agent were based upon clinically achievable concentrations if the clinical Cmax of the agent was known.
Compounds. The drugs and investigational agents: inavolisib (NSC800729), alpelisib (NSC765974), duvelisib (NSC772469), copanlisib (NSC816437), ipatasertib (NSC767898), afuresertib (NSC778305), talazoparib (NSC767125), sapanisertib (NSC764658), selumetinib (NSC741078), tovorafenib (DAY101, NSC766906), vemurafenib (NSC761431), ravoxertinib (NSC781343), sotorasib (NSC818433), MRTX1133 (NSC 836407), abemaciclib (NSC 768073), palbociclib (NSC758247), venetoclax (NSC 766270), SY5609 (NSC837396), enzalutamide (NSC755605), and darolutamide (NSC825331), were obtained from the National Cancer Institute (NCI) Developmental Therapeutics Program Chemical Repository. The FDA-approved anticancer drug set is available from the NCI Developmental Therapeutics Program. […] The stock solutions were prepared in dimethyl sulfoxide (DMSO, Sigma-Aldrich, St. Louis, MO, cat. D2650) at 800-fold the tested concentration and stored at -70 degrees C prior to their use. All drugs and investigational agents were tested over a range starting from a high concentration at or near the clinical Cmax and decreasing in half-log increments. If the clinical Cmax for an agent had not been determined, the highest concentration tested was 10 microM.
Cell Culture. All cells were maintained in an incubator at 37 degrees C and 5% CO2 with 95% humidity. The PDC lines were cultured according to standard operating procedures established by the NCI PDMR (https://pdmr.cancer.gov/sops/default.htm). All PDCs were thawed and cultured in Matrigel-coated flasks prepared with a working solution of 1X Ham's F-12 nutrient mix, without supplementation (Invitrogen, Waltham, MA, cat. 11765054), 100 U/mL penicillin-streptomycin (Invitrogen, cat. 15140122), and 2.5% Matrigel (Corning Inc., Corning, NY, cat. 354248) for the first three passages. The 354836-022-R-J1-PDC, 475296-252-R-J1-PDC, and 997726-040-R-J2-PDC lines were cultured in 6A media, which includes advanced DMEM/F-12 (Thermo Fisher Scientific, cat. 12634028), 10 mM HEPES (Thermo Fisher Scientific, cat. 15630080), 1X GlutaMAX supplement (Thermo Fisher Scientific, cat. 35050061), 0.1 mg/mL primocin (InvivoGen, San Diego, CA, cat. ant-pm-2), 10% defined fetal bovine serum, heat inactivated (HyClone Laboratories Inc., Logan, UT, cat. SH30070.03HI), 50% L-WRN conditioned media (ATCC, cat. CRL-3276), 1.25 mM N-Acetyl-L-cysteine (Sigma-Aldrich, cat. A9165), 10 mM nicotinamide (Sigma-Aldrich, cat. N0636), 1X B-27 supplement (Thermo Fisher Scientific, cat. 17504044), 1X N-2 supplement (Thermo Fisher Scientific, cat. 17502048), and 10 microM Y-27632 dihydrochloride (Tocris Bioscience, Bristol, United Kingdom, cat. 1254). The 624824-186-R-J2-PDC line was cultured in 6C/Colon 1B media, which includes all 6A media components plus 50 ng/mL human EGF recombinant protein (Thermo Fisher Scientific, cat. PHG0311). […]

[1] = second compound 0.00316 µM, first compound 0.0316 µM
[2] = second compound 0.00316 µM, first compound 0.1 µM
[3] = second compound 0.01 µM, first compound 0.0316 µM
[4] = second compound 0.01 µM, first compound 0.1 µM
[5] = second compound 0.0316 µM, first compound 0.0316 µM
[6] = second compound 0.0316 µM, first compound 0.1 µM
[7] = second compound 0.1 µM, first compound 0.0316 µM
[8] = second compound 0.1 µM, first compound 0.1 µM
[9] = second compound 0.316 µM, first compound 0.0316 µM
[10] = second compound 0.316 µM, first compound 0.1 µM
[11] = second compound 1 µM, first compound 0.0316 µM
[12] = second compound 1 µM, first compound 0.1 µM

CC(C)n1nc(-c2ccc3oc(N)nc3c2)c2c(N)ncnc21 + COc1c(OCCCN2CCOCC2)ccc2c3n(c(=NC(=O)c4cnc(N)nc4)nc12)CCN3
32 nM: IC50 (second compound 0.0316 µM)
inactive: viability, T/C (second compound 0.00316 µM, first compound 0.000316 µM) 81.1% | viability, T/C (second compound 0.00316 µM, first compound 0.001 µM) 87% | viability, T/C (second compound 0.00316 µM, first compound 0.00316 µM) 95.5% | viability, T/C (second compound 0.00316 µM, first compound 0.01 µM) 88.3% | viability, T/C [1] 52.3% | viability, T/C [2] 18.8% | viability, T/C (second compound 0.01 µM, first compound 0.000316 µM) 77.2% | viability, T/C (second compound 0.01 µM, first compound 0.001 µM) 83.5% | viability, T/C (second compound 0.01 µM, first compound 0.00316 µM) 87.7% | viability, T/C (second compound 0.01 µM, first compound 0.01 µM) 81.1% | viability, T/C [3] 61.1% | viability, T/C [4] 14.9% | viability, T/C (second compound 0.0316 µM, first compound 0.000316 µM) 75.6% | viability, T/C (second compound 0.0316 µM, first compound 0.001 µM) 84.4% | viability, T/C (second compound 0.0316 µM, first compound 0.00316 µM) 80.9% | viability, T/C (second compound 0.0316 µM, first compound 0.01 µM) 68% | viability, T/C [5] 51.2% | viability, T/C [6] 11.6% | viability, T/C (second compound 0.1 µM, first compound 0.000316 µM) 49.8% | viability, T/C (second compound 0.1 µM, first compound 0.001 µM) 63.6% | viability, T/C (second compound 0.1 µM, first compound 0.00316 µM) 53.7% | viability, T/C (second compound 0.1 µM, first compound 0.01 µM) 49.9% | viability, T/C [7] 36% | viability, T/C (second compound 0.316 µM, first compound 0.000316 µM) 28.2% | viability, T/C (second compound 0.316 µM, first compound 0.001 µM) 25.8% | viability, T/C (second compound 0.316 µM, first compound 0.00316 µM) 28.1% | viability, T/C (second compound 0.316 µM, first compound 0.01 µM) 24.9% | viability, T/C [9] 15.4%
10.4 nM: IC50 (second compound 0.1 µM)
< 0.316 nM: IC50 (second compound 0.316 µM) | IC50 (second compound 1 µM)
41.7 nM: IC50 (second compound 0.01 µM)
34.2 nM: IC50 (second compound 0.00316 µM)
active: viability, T/C [8] 7.66% | viability, T/C [10] 3.12% | viability, T/C (second compound 1 µM, first compound 0.000316 µM) 3.84% | viability, T/C (second compound 1 µM, first compound 0.001 µM) 3.57% | viability, T/C (second compound 1 µM, first compound 0.00316 µM) 2.98% | viability, T/C (second compound 1 µM, first compound 0.01 µM) 3% | viability, T/C [11] 1.87% | viability, T/C [12] 0.59%

C[C@@H](NC(=O)c1ncnc(N)c1Cl)c1ncc(C(=O)Nc2cc(C(F)(F)F)c(Cl)cn2)s1 + COc1c(OCCCN2CCOCC2)ccc2c3n(c(=NC(=O)c4cnc(N)nc4)nc12)CCN3
< 31.6 nM: IC50 (second compound 0.316 µM) | IC50 (second compound 1 µM)
active: viability, T/C [11] 5.16% | viability, T/C [12] 4.86% | viability, T/C (second compound 1 µM, first compound 0.316 µM) 5.09% | viability, T/C (second compound 1 µM, first compound 1 µM) 7.06% | viability, T/C (second compound 1 µM, first compound 3.16 µM) 7.47% | viability, T/C (second compound 1 µM, first compound 10 µM) 5.33%
> 10000 nM: IC50 (second compound 0.00316 µM) | IC50 (second compound 0.01 µM) | IC50 (second compound 0.0316 µM) | IC50 (second compound 0.1 µM)
inactive: viability, T/C [1] 83.1% | viability, T/C [2] 91.9% | viability, T/C (second compound 0.00316 µM, first compound 0.316 µM) 93.5% | viability, T/C (second compound 0.00316 µM, first compound 1 µM) 96.2% | viability, T/C (second compound 0.00316 µM, first compound 3.16 µM) 86.4% | viability, T/C (second compound 0.00316 µM, first compound 10 µM) 76.4% | viability, T/C [3] 87% | viability, T/C [4] 101% | viability, T/C (second compound 0.01 µM, first compound 0.316 µM) 87.4% | viability, T/C (second compound 0.01 µM, first compound 1 µM) 101% | viability, T/C (second compound 0.01 µM, first compound 3.16 µM) 99.7% | viability, T/C (second compound 0.01 µM, first compound 10 µM) 71.4% | viability, T/C [5] 79.7% | viability, T/C [6] 79.2% | viability, T/C (second compound 0.0316 µM, first compound 0.316 µM) 91.6% | viability, T/C (second compound 0.0316 µM, first compound 1 µM) 75.9% | viability, T/C (second compound 0.0316 µM, first compound 3.16 µM) 74.5% | viability, T/C (second compound 0.0316 µM, first compound 10 µM) 61.6% | viability, T/C [7] 51.1% | viability, T/C [8] 52.5% | viability, T/C (second compound 0.1 µM, first compound 0.316 µM) 57.5% | viability, T/C (second compound 0.1 µM, first compound 1 µM) 66.6% | viability, T/C (second compound 0.1 µM, first compound 3.16 µM) 59.9% | viability, T/C (second compound 0.1 µM, first compound 10 µM) 56.6% | viability, T/C [9] 28.3% | viability, T/C [10] 27.8% | viability, T/C (second compound 0.316 µM, first compound 0.316 µM) 30% | viability, T/C (second compound 0.316 µM, first compound 1 µM) 37.3% | viability, T/C (second compound 0.316 µM, first compound 3.16 µM) 36.3% | viability, T/C (second compound 0.316 µM, first compound 10 µM) 31.9%
